# US10314804B2, “Composition containing norbixin for protecting cells of the retinal pigment epithelium” (BIOPHYTIS, priority 2015, dated 2019)
# “Also recorded” adds a separate entry of the source. Where two headings read alike, the source gives them in different places.
# Key:
# [1] = system: primary cultures of adult pig RPE; conditions: cited from earlier work; for photoprotective activity on RPE cells in earlier tests (FR 11 54172): 0.1 μM, 1 μM and 10 μM
# neuroganglion cells = conditions: Yamauchi et al., 2011; cited from earlier work
# [2] = bioavailability of bixin and norbixin, plasma analysis; type: in vivo, C57Bl/6 mice; conditions: for Cmax: 50 mg/kg; for AUC(0-t): read-out: AUC 0-24 h; for detection in plasma over time: after bixin ingestion
# Procedure: Studies of the bioavailability of bixin and of norbixin were carried out in C57Bl/6 mice. The compounds were administered orally (50 mg/kg). Blood samples were taken after 0.25, 0.5, 1, 3, 6, 8 and 24 h and analyzed by HPLC-DAD (UV 460 nm)-MS/MS.
# [3] = system: primary cultures of adult pig RPE; test: in vitro photoprotection test: RPE cells with A2E, blue light illumination, cell survival; type: cell-based; conditions: 20 μM (extract diluted to provide 20 μM of bixin), FIG. 1
# Procedure: The term “blue radiation” is intended to mean the radiation corresponding to the blue band of the visible light spectrum, that is to say having a wavelength of between 435 and 490 nm. This model uses primary cultures of adult pig RPE. The cell survival is quantified by means of a cell viability test. At −48 h, the compounds to be tested (in 5 mM solution in DMSO) are added so as to obtain final concentrations of 1 to 20 μM), then at −19 h, A2E is added (final concentration 30 μM) and the cells are irradiated (time 0 h). 24 h later, the cell survival is measured. The acquisition of the images and also the processing thereof are carried out by means of a fluorescence microscope controlled by the Metamorph software and of a dedicated quantification program. The experiments are carried out on 96-well microplates in quadruplicate and the experiment is reproduced a minimum of four times. The results are expressed in the form of a ratio representing the number of live cells in the wells treated with the molecules to be tested, divided by the number of live cells in the control wells (treated with the dilution medium without A2E).
# [4] = system: double KO mice (ABCA4−/−, RDH8−/−); test: photoprotective activity by intravitreal injection, blue light exposure; type: in vivo
# Description: A genetically modified mouse model developed by Maeda et al. (2008) was used to test the photoprotective activity of norbixin. In this mouse model, two genes involved in the visual pigment cycle (ABCA4 and RDH8) are inactivated, which results in an early accumulation of A2E in the eyes (FIG. 5). This animal model is as a result similar to the human pathological condition, with of course its limits, associated with the differences in organization of the eyes between rodents and primates. 7-week-old mice were thus used to carry out unilateral intravitreal injections of norbixin (in order to obtain a final concentration in the vitreous body of 130 μM). After 24 h in the dark, the mice were subjected to an exposure to blue light (4000 lux, 1 h).
# rats [5] = test: rat blue light model, intraperitoneal injection; type: in vivo; conditions: 100 mg/kg i.p.
# Procedure: The “rat blue light” model consists in subjecting the animals to a strong blue light for 6 hours in order to cause ocular damage that is assessed 7 days later by carrying out electroretinograms and then by histological analyses. An antioxidant compound, PBN (phenyl-N-tert-butylnitrone) is used as positive control (Ranchon et al., 2001; Tomita et al., 2005). The compounds of which it is sought to determine the photoprotective activity are injected (intraperitoneally) before and during the illumination phase. Said phase is carried out with Philips blue neon tubes (4.2 mW/cm^2) for 6 hours.
# Three series of experiments were carried out with norbixin (100 mg/kg, four injections per rat of a solution at 50 mM in 9‰ NaCl, 4 rats/series) using PBN (phenyl-N-tert-butylnitrone, 50 mg/kg, solution at 20 mg/ml in 9‰ NaCl) as positive control.
# [6] = presence of norbixin in the eyes after intraperitoneal injection; type: in vivo, double KO mice (ABCA4−/−, RDH8−/−)
# Procedure: The presence of norbixin in the eyes was investigated in double KO mice (ABCA4^−/−, RDH8^−/−) 3 hours after intraperitoneal injection of norbixin (10 mg/kg). The eyes of 6 animals were dissected and the samples were extracted with acetonitrile, pooled and then analyzed by HPLC-MS/MS (FIG. 4), which made it possible to specifically detect the presence of norbixin in the RPE and the retina (table 2).
# Glucuronidation had also been described in the case of crocetin (Asai et al., 2005).
# [7] = system: double KO mice (ABCA4−/−, RDH8−/−); test: photoprotective activity by chronic oral administration (supplemented feed, 3 months); type: in vivo
# Procedure: A feed containing 0.3 mg/g of pure norbixin was prepared and given to double KO mice (ABCA4^−/−, RDH8^−/−) for a period of 3 months.
# rats [8] = conditions: cited from earlier work
# [9] = cited from earlier work
# [10] = C57Bl/6, mouse, plasma, po, Bixin ingestion (50 mg/kg), analyte as labelled
# [11] = C57Bl/6, mouse, po, Bixin ingestion (50 mg/kg), plasma, analyte as labelled
smiles,measurement,setting,value
O=c1oc2c(O)c(O)cc3c(=O)oc4c(O)c(O)cc1c4c23 [ellagic acid],photoprotective effect on RPE cells in earlier tests (FR 11 54172),[1]; 10 μM and 20 μM,advantageous photoprotective effect
"CC(/C=C/C=C(\C)C(=O)O)=C\C=C\C=C(C)\C=C\C=C(/C)C(=O)O [crocetin, 8,8′-diapocarotene-8,8′-dioate]",protection against oxidative stress,neuroganglion cells,protects
"COC(=O)/C=C/C(C)=C\C=C\C(C)=C\C=C\C=C(C)\C=C\C=C(C)\C=C\C(=O)O [bixin, methylhydrogen 6,6′-diapocarotene-6,6′-dioate]",Cmax,[2]; [10],833 ng/mL
same,AUC(0-t),[2]; [11],1670 ng·h/mL
same,Tmax,"[2]; C57Bl/6, mouse, po, Bixin ingestion (50 mg/kg), plasma, analyte as labelled, read-out: Tmax",30 min
same,detection in plasma over time,[2]; oral 50 mg/kg,no longer detected after 8 hours
same,conversion of ingested compound,[2]; oral 50 mg/kg,rapidly converted into norbixin
same,photoprotective activity on RPE cells in earlier tests (FR 11 54172),[1],do not have any photoprotective activity; also recorded: ineffective
same,protection of RPE cells against phototoxicity induced in the presence of A2E (cell survival),[3],effectively protect
CC(=C/C=C/C(C)=C/C=C/C=C(C)/C=C/C=C(C)/C=C/C(=O)O)/C=C/C(=O)O [norbixin],Tmax,"[2]; Bixin ingestion (50 mg/kg), plasma, analyte as labelled",Norbixin 0.5 h
same,Cmax,[2]; [10],649 ng/mL
same,Cmax,"[2]; C57Bl/6, mouse, plasma, po, Norbixin ingestion (50 mg/kg)",12400 ng/mL
same,bioavailability,"[2]; C57Bl/6, mouse, plasma, intraperitoneal injection (5 mg/kg) versus oral administration (50 mg/kg), FIG. 3b",55%
same,AUC(0-t),[2]; [11],1340 ng·h/mL
same,AUC,"[2]; C57Bl/6, mouse, po, Norbixin ingestion (50 mg/kg), plasma",41600 ng·h/mL
same,Tmax,"[2]; C57Bl/6, mouse, po, Norbixin ingestion (50 mg/kg), plasma, read-out: Tmax",30 min
same,detection in plasma over time,[2]; oral 50 mg/kg,no longer detected after 8 hours
same,elimination from the eye after intravitreal injection,[4]; 24 h after the intravitreal injection,virtually eliminated
same,electroretinogram (A- and B-waves),"[4]; intravitreal, 130 μM in vitreous body, blue light 4000 lux 1 h, 7 days later, FIG. 6",protective effect
same,"thickness of the layer of external nuclei (photoreceptors), histology","[4]; intravitreal, 130 μM, FIG. 7",protective effect
same,electroretinograms (A-waves and B-waves),"rats [5]; four injections, blue light 6 hours, 7 days later, FIG. 8B",significant efficacity
same,"survival of the photoreceptors, histology",rats [5]; FIGS. 9A and 9B,confirm the photoprotective action
same,photoprotective activity on RPE cells in earlier tests (FR 11 54172),[1],do not have any photoprotective activity
same,protection of RPE cells against phototoxicity induced in the presence of A2E (cell survival),[3],effectively protect
same,"Norbixin (ng/organ), Crystalline","[6]; 3 hours after i.p. 10 mg/kg, Crystalline",<LOQ
same,"Norbixin (ng/organ), RPE","[6]; 3 hours after i.p. 10 mg/kg, RPE",5.15 ng/organ
same,"Norbixin (ng/organ), Retina","[6]; 3 hours after i.p. 10 mg/kg, Retina",2.40 ng/organ
same,"Norbixin (ng/organ), Total","[6]; 3 hours after i.p. 10 mg/kg, Total",7.55 ng/organ
same,"Norbixin (ng/organ), Vitreous humor","[6]; 3 hours after i.p. 10 mg/kg, Vitreous humor",<LOQ
same,conjugated forms in plasma and eyes,"[6]; HPLC-MS/MS, FIG. 4",gives two monoglucuronides
same,accumulation of norbixin in the eyes,"[7]; chronic treatment, feed, 3 months",no significant accumulation
same,A2E accumulation in the eyes,"[7]; feed 0.3 mg/g, 3 months, FIG. 10",reduction in A2E accumulation
same,amplitude of the electroretinogram (ERG),"[7]; feed 0.3 mg/g, 3 months, FIG. 11",positive effect
same,daily intake that significantly slows down the retinal degeneration,"[7]; mice, oral administration",48 mg/kg of body weight
same,intake up to which no toxicity was observed,"rats [8]; rat, in vivo",20 mg/kg/day
same,no observable adverse effect level (NOAEL),rats [8]; rats,69 mg/kg/day of body weight
same,acceptable daily intake (ADI),[9]; JECFA/67/FC,at most 0.6 mg/kg/day of body weight
same,"daily intake with no observable adverse effect level in humans, equivalent",[9]; equivalent of rat NOAEL,11 mg/kg
